Test results reported in patent publication US20230233477A1, “Bi2O3 NANOPARTICLES PREPARED BY THE TOP-DOWN ULTRASONICATION ROUTE AS A BROAD-[sequence] ANTIMICROBIAL TO OVERCOME DRUG RESISTANCE IN ANTIBIOTICS” (KENT STATE UNIVERSITY, priority 2022, published 2023).

Columns and labels:
PA = format: cell-based, Pseudomonas aeruginosa; conditions: sub-lethal concentration, after 13 days
Procedure: Drug resistance study. The MIC was determined using a broth dilution method. […] The as-prepared bacterial solutions were incubated at 37° C. for 24 h. After incubation, the MIC was determined as the lowest concentration that inhibited visible growth of the tested microorganisms with unaided eyes. This same procedure was done by serial passaging of the bacteria until 30 days. Later on, three types of mutant DSPA were prepared by treating with Ag NPs, ciprofloxacin and meropenem for 15 days.

DRPA (BAA-2108) = test: Checkerboard assay with meropenem against DRPA; format: cell-based; conditions: Pseudomonas aeruginosa, BAA2108, single agent
Procedure: The degree of synergism was determined using a checkerboard assay in a 96-well plate (FIG. 4b). […] Combinations of the two treatments were prepared using the 2-fold dilution method to determine the fractional inhibitory concentration (FIC; Table S2). The FIC index is used to determine whether two treatments are synergistic (χ≤0.5), additive (0.5<χ<4) or antagonistic (χ≥4).^38 Checkerboard assay.

| MIC (DRPA (BAA-2108)) [µg/mL] | Structure (SMILES) | MIC increase (fold) (PA) |
| --- | --- | --- |
| – | O=C(O)c1cn(C2CC2)c2cc(N3CCNCC3)c(F)cc2c1=O [ciprofloxacin] | 32 |
| 2 | C[C@@H](O)[C@H]1C(=O)N2C(C(=O)O)=C(S[C@@H]3CN[C@H](C(=O)N(C)C)C3)[C@H](C)[C@H]12 [meropenem] | – |
